In PubChem BioAssay AID2305 (GlaxoSmithKline (GSK), 2010):

The molecules below were run on P. falciparum 3D7 growth, pLDH absorbance (assay: P. falciparum 3D7 growth inhibition, dose response, strain 3D7 (AID 2305)).

With `COC(=O)c1cccc(CNCc2ccc(-c3ccc(-c4nc5c(C)cccc5[nH]4)s3)cc2)c1` as the molecule, how does the IC50 read?
Its IC50 is 400 nM.

How did the IC50 turn out when `O=C(Nc1cccc(-c2cccc(-c3nc4ccccc4[nH]3)c2)c1)Nc1ccc2c(c1)OCO2` was run?
The IC50 was 170 nM.

Which IC50 does the source give for `COc1ccc2nccc(N3C[C@H]4C[C@@H]3CN4CCNCc3ccc4c(n3)NC(=O)CS4)c2n1` here?
Its IC50 is 970 nM.

How did the IC50 turn out when `Cc1ccc(NC(=O)c2ccc(N3CCN(c4ccncc4)CC3)cc2)cc1F` was run?
The IC50 was 740 nM.

How did the IC50 turn out when `COc1ccc2c(NN=Cc3ccccc3[N+](=O)[O-])ccnc2c1` was run?
Its IC50 is 740 nM.

How did the IC50 turn out when `CN1CCC(C(=O)N(Cc2ccc(-c3ccc(CNCCc4ccccc4)cn3)cc2)C2CCN(Cc3ccccc3)CC2)CC1` was run?
Its IC50 is 790 nM.

`Cc1cccc(-c2c(C)nc(N)nc2N)c1` was tested. Which IC50 did it give?
The IC50 was 1150 nM.

For `N#Cc1ccc2c(c1)CCN(CCC1CCC(NC(=O)c3cccc(-c4ccc(F)cc4)c3)CC1)CC2` (configuration not stated), which IC50 is on record?
The IC50 was 820 nM.

For `COc1ccc(O)c(-c2sc(N=C(N)N)nc2-c2ccccc2)c1`, which IC50 is on record?
The IC50 was 370 nM.

`CN1CCC(C(=O)Nc2cccc(-c3cccc(-c4nc5ccc(F)cc5[nH]4)c3)c2)CC1` was tested. Which IC50 did it give?
The IC50 was 690 nM.

With `S=C(Nc1ccccc1Cl)NC1CCC(CN2CCC(c3c[nH]c4ccccc34)CC2)CC1` (configuration not stated) as the molecule, how does the IC50 read?
The IC50 was 1050 nM.

Which IC50 does the source give for `O=C(O)c1cccnc1Sc1ccc(Cl)cc1` here?
Its IC50 is 830 nM.

`CCOc1ccc2nc(C)cc(NN=Cc3cccnc3)c2c1` was tested. Which IC50 did it give?
The IC50 was 150 nM.

With `c1ccc(Oc2ccc(Nc3ccnc4ccc(-c5ccccn5)cc34)cc2)cc1` as the molecule, how does the IC50 read?
Its IC50 is 1100 nM.

How did the IC50 turn out when `Cc1cccc(C)c1CNc1ccnc2ccccc12` was run?
The IC50 was 1200 nM.

For `Fc1cccc(Nc2nc(NCc3ccc4ccsc4c3)nc(Nc3cccc(F)c3)n2)c1`, which IC50 is on record?
Its IC50 is 1080 nM.

How did the IC50 turn out when `Cc1cc(Cl)c(S(=O)(=O)NC(C)(C)C)cc1OCC(=O)NC1CCCCC1` was run?
The IC50 was 550 nM.

`CCOC(=O)c1c(-c2ccccc2)[nH]c2c(sc3ccccc32)c1=O` was tested. Which IC50 did it give?
Its IC50 is 370 nM.

How did the IC50 turn out when `OC(CNC1CCCCC1)Cn1c2ccc(I)cc2c2cc(I)ccc21` (configuration not stated) was run?
The IC50 was 340 nM.

For `CCN(CC)CCN(Cc1ccc(-c2ccc(C(F)(F)F)cc2)cc1)C(=O)Cn1c(CCc2cccc(F)c2F)nc(=O)c2cccnc21`, which IC50 is on record?
The IC50 was 730 nM.

With `Cc1csc(-c2nc(NCc3cccnc3)ncc2-c2ccsc2)n1` as the molecule, how does the IC50 read?
Its IC50 is 1190 nM.

`c1ccc(CNCCn2c(-c3ccc4c(c3)CCO4)nc3c(N4CCCC4)cccc32)cc1` was tested. Which IC50 did it give?
Its IC50 is 1130 nM.

Which IC50 does the source give for `Cc1cccc2[nH]c(-c3ccc(-c4ccc(CN5CCCCC5CO)cc4)cc3)nc12` (configuration not stated) here?
The IC50 was 810 nM.

`CCN1CCN(c2cc(C)c3cc(NC(=O)c4cccc(C(F)(F)F)c4)ccc3n2)CC1` was tested. Which IC50 did it give?
Its IC50 is 570 nM.

How did the IC50 turn out when `CC(C)n1ncc2c(C(=O)Nc3ccc(C#N)c(Cl)c3)cc(C3CC3)nc21` was run?
Its IC50 is 960 nM.

How did the IC50 turn out when `COc1ccc(Cn2c(Nc3cccc(C(F)(F)F)c3)nc3cc(C(=O)NC4CC4)cnc32)cc1Cl` was run?
Its IC50 is 730 nM.

With `CCCC(C)N(Cc1ccc(C(C)(C)C)cc1)C(=O)c1cccc(C#N)c1` (configuration not stated) as the molecule, how does the IC50 read?
The IC50 was 1050 nM.

For `O=C(Nc1ccc([N+](=O)[O-])cc1)c1nn(-c2ccccc2)cc1N=Cc1cccc(O)c1`, which IC50 is on record?
The IC50 was 890 nM.

How did the IC50 turn out when `COC(=O)CCn1c(C2CCN(CC3CCC(NC(=O)/C=C/c4ccc(Cl)c(Cl)c4)CC3)CC2)nc2ccccc21` (configuration not stated) was run?
Its IC50 is 950 nM.

How did the IC50 turn out when `Cc1nc2c(-n3cc(Cn4ccnc4)c4ccccc43)ncnc2n1-c1ccc(Cl)cc1Cl` was run?
Its IC50 is 990 nM.

With `CCC1CCc2cc(N)cc(-c3nc4c(c(C)nn4CC)c(=O)[nH]3)c2O1` (configuration not stated) as the molecule, how does the IC50 read?
The IC50 was 1120 nM.

With `O=S(=O)(NCCN1CCCC1)c1ccc(-c2ccc(CN3Cc4ccccc4C3)cc2)s1` as the molecule, how does the IC50 read?
Its IC50 is 930 nM.

With `CC(C)N1CCN(C(CN2CCN(CCCOc3ccc4ccccc4c3)CC2)c2ccc(F)cc2)CC1` (configuration not stated) as the molecule, how does the IC50 read?
The IC50 was 580 nM.

`COc1ccc2ccc(F)c(CCN3CCC(NCc4cc5c(cn4)OCCO5)CC3)c2n1` was tested. Which IC50 did it give?
The IC50 was 840 nM.

With `CCOC(=O)Cn1ccc2c(NCc3ccccc3)nc(C)nc21` as the molecule, how does the IC50 read?
Its IC50 is 370 nM.

For `Cc1cnc(-c2cccc(C(=O)NC3CCC(CCN4CCc5ccc(C#N)cc5CC4)CC3)c2)[nH]1` (configuration not stated), which IC50 is on record?
Its IC50 is 300 nM.

With `COCCCNc1sc(S(=O)(=O)c2ccccc2)nc1S(=O)(=O)c1ccc(C)cc1` as the molecule, how does the IC50 read?
The IC50 was 800 nM.

Which IC50 does the source give for `Cc1nc(-c2cccc(Nc3nccc(NCC(O)c4cccc(C(F)(F)F)c4)n3)c2)cs1` (configuration not stated) here?
The IC50 was 630 nM.

Which IC50 does the source give for `Cc1ccc(Nc2nccc(N(C)c3ccc4c(c3)nc(NC(=O)Cc3ccc(Cl)c(Cl)c3)n4C)n2)cc1S(N)(=O)=O` here?
Its IC50 is 1110 nM.

For `CCCCCSc1cc(O)c(C(CNC)C(C)C)cc1OC` (configuration not stated), which IC50 is on record?
The IC50 was 160 nM.

With `Cc1cccc(CNc2nccc3[nH]c4ccccc4c23)c1` as the molecule, how does the IC50 read?
The IC50 was 1900 nM.

How did the IC50 turn out when `O=C(Nc1ccccc1)c1cccc(Nc2nccc(Nc3ccc(Oc4ccccc4)cc3)n2)c1` was run?
The IC50 was 1550 nM.

Which IC50 does the source give for `OC[C@H](Nc1nc(C(Oc2ccccc2)c2ccccc2)nc2[nH]ncc12)c1ccccc1` (some centres not stated) here?
Its IC50 is 850 nM.

Which IC50 does the source give for `O=C(/C=C/c1ccc(Cl)c(Cl)c1)N1CCC(C(O)CN2CCC(c3c[nH]c4ccccc34)CC2)CC1` (configuration not stated) here?
Its IC50 is 860 nM.

For `Cc1c(CNCCCNc2nc3ccncc3[nH]2)sc(Br)c1Br`, which IC50 is on record?
The IC50 was 1040 nM.

Which IC50 does the source give for `O=C(NCCc1cccc(Cl)c1Cl)c1ccc(N2CCN(c3ccncc3)CC2)nc1` here?
Its IC50 is 1060 nM.

How did the IC50 turn out when `CCCc1cn2c3c(cc(C(=O)N[C@@H](Cc4ccccc4)[C@H](O)CNC4CCCCC4)cc13)N(C)S(=O)(=O)CC2` was run?
Its IC50 is 70 nM.

Which IC50 does the source give for `O=C(Nc1cccc([N+](=O)[O-])c1)N(Cc1ccc(Cl)c(Cl)c1)C1CCNCC1` here?
Its IC50 is 720 nM.

Which IC50 does the source give for `CCOc1ccc(-c2nc(NC(=O)CS(=O)(=O)c3ccccc3)sc2C)cc1` here?
The IC50 was 510 nM.

Which IC50 does the source give for `Cn1c(=O)c2cc(C(=O)NCCCN3CCCCCC3)sc2c2ccccc21` here?
The IC50 was 690 nM.

With `O=C(Nc1cccc([N+](=O)[O-])c1)Nc1cccc(C(F)(F)F)c1` as the molecule, how does the IC50 read?
The IC50 was 770 nM.

Which IC50 does the source give for `Cc1cccc2[nH]c(-c3ccc(-c4cccc(CNCCN5CCNCC5)c4)cc3)nc12` here?
Its IC50 is 1230 nM.

`COc1ccc(-c2ccc(S(=O)(=O)Nc3cc4c(cc3OC(C)C)CCNCC4)cc2)cc1` was tested. Which IC50 did it give?
The IC50 was 970 nM.

Which IC50 does the source give for `CC(Cc1ccc(S(=O)(=O)N(C(C)C)C(C)C)cc1)NCC(O)c1cccc(C(F)(F)F)c1` (configuration not stated) here?
Its IC50 is 690 nM.

How did the IC50 turn out when `CN1CCC(NCc2ccc(-c3cnc(NCc4ccccc4)nc3)cc2)CC1` was run?
Its IC50 is 830 nM.

For `Cc1cc(N(C)CCCN(C)C)nc(Nc2ccc(Br)cc2)n1`, which IC50 is on record?
The IC50 was 640 nM.

`COc1cc2nccc(Nc3ccc4c(cnn4Cc4ccccc4F)c3)c2cc1OC` was tested. Which IC50 did it give?
Its IC50 is 400 nM.

For `C(=N\Nc1nccc2sc(-c3cccnc3)cc12)/c1cccnc1`, which IC50 is on record?
The IC50 was 420 nM.

Which IC50 does the source give for `Cc1cccc2[nH]c(-c3ccc(-c4ccc(CNCc5ccc(CN)cc5)cc4)s3)nc12` here?
Its IC50 is 440 nM.

`CCN1CCN(CC(O)CNC(=O)Nc2ccc(Cl)cc2)CC1` (configuration not stated) was tested. Which IC50 did it give?
The IC50 was 150 nM.

With `O=C(NC1CCCc2ccccc21)[C@@H]1CCCN1C(=O)c1ccc(O)c(-c2cccc([N+](=O)[O-])c2)c1` (some centres not stated) as the molecule, how does the IC50 read?
Its IC50 is 680 nM.

For `CN1CCCN(c2ccnc3cc4c(cc23)N(C(=O)c2ccc(Cl)cc2)CC4)CC1`, which IC50 is on record?
The IC50 was 790 nM.

How did the IC50 turn out when `Nc1nc(N)c2c(ccc3ccccc32)n1` was run?
Its IC50 is 750 nM.

For `O=C(Nc1ccc(Cl)c(C(F)(F)F)c1)Nc1ccc(Cl)c(C(F)(F)F)c1`, which IC50 is on record?
Its IC50 is 770 nM.

`Cc1ccc(-c2nc3cc(NC(=O)c4ccc([N+](=O)[O-])o4)ccc3o2)cc1Cl` was tested. Which IC50 did it give?
The IC50 was 160 nM.

With `CCc1ccc(C2CCN(CCCCNC(=O)c3ccc(NC(=O)c4ccc(Cl)cc4)cc3)CC2)c(OCCO)c1` as the molecule, how does the IC50 read?
Its IC50 is 1390 nM.

Which IC50 does the source give for `O=C(Nc1cccc(CN2CCCN(Cc3ncc[nH]3)CC2)c1)c1ccc(-c2ccccc2)cc1` here?
Its IC50 is 650 nM.

With `Fc1cccc2sc(Nc3nc(-c4ccccn4)cs3)nc12` as the molecule, how does the IC50 read?
Its IC50 is 910 nM.

How did the IC50 turn out when `N=C(N)c1ccc(Nc2nccc(Nc3nc(-c4ccccc4)cs3)n2)cc1` was run?
Its IC50 is 750 nM.

For `Cc1nc(C)c(CC(=O)Nc2cccc(-c3cccc(-c4nc5ccc(C(F)(F)F)cc5[nH]4)c3)c2)s1`, which IC50 is on record?
The IC50 was 830 nM.

Which IC50 does the source give for `COc1ccc(NC(=O)c2cn(-c3ccc(C(C)(C)C)cc3)nc2C)cc1N1CCN(C)CC1` here?
The IC50 was 950 nM.

Which IC50 does the source give for `O=C(NC1CCCc2ccccc21)[C@@H]1CCCN1C(=O)c1ccc(O)c(-c2ccc(Cl)c(Cl)c2)c1` (some centres not stated) here?
Its IC50 is 210 nM.
